According to a melting point compilation (Tetko et al.; mined from patent text by program, amines drawn as free bases though some values may be those of a salt):
Residues, ends and D or L forms follow the SMILES beside them. *: point of attachment. PhAc = O=C(Cc1ccccc1)*; NHNH2 = NN*

Structure (SMILES) | melting point
CCN(CC)c1ccc2c(C)c(C#Cc3ccccc3)c(=O)oc2c1 | 142 to 144 °C
COc1cc(CO[Si](C(C)C)(C(C)C)C(C)C)ccc1OCc1nc(-c2cccc(-c3nnn[nH]3)c2)oc1C | 152 to 153 °C
Cc1c(Br)c2c(c(C)c1NC(=O)CC(C)(C)C)CC(C)(C)O2 | 205 to 206 °C
CCCOc1ccccc1-c1nc2nc(OC)ncc2c(=O)[nH]1 | 231 °C
CS(=O)(=O)n1cc(C2CCN(S(=O)(=O)N3CCCC[C@@H]3C(=O)NO)CC2)c2cc(C#N)ccc21 | 143 to 144 °C
Fc1ccc(C(c2ccccc2Cl)N2CCN(CCCOC(c3ccccc3)c3ccccc3)CC2)cc1 (configuration not stated) | 98 to 99 °C
CNC1NC(=O)c2sccc2-n2cccc21 (configuration not stated) | 146 °C
CSc1cc(S(F)(F)(F)(F)F)ccc1C#N | 101 to 102 °C
CCc1cc2c(NCc3ccc4c(c3)OCO4)nc(Cl)nc2s1 | 148 °C
CCCn1c(=O)c2[nH]c(C3CCC(=O)C3)nc2n(CCC)c1=O (configuration not stated) | 147 to 148 °C
C1=C(c2ccccc2)CC(CN2CCN(c3ccccn3)CC2)CC1 (configuration not stated) | 96 to 98 °C
COc1ccc(C(c2ccc(OC)c(OCc3ccccc3)c2)n2cncn2)cc1OCc1ccccc1 | 96 to 99 °C
O=C(CCCN1CCN(c2nc3nccc(-c4ccncc4)n3n2)CC1)c1ccc(F)cc1 | 133 to 135 °C
COC(=O)c1ccc([N+](=O)[O-])cc1C#CC(C)(C)C | 88 to 89 °C
Cc1cc(C2CCCCC2)ccc1C(=O)O | 129 to 130 °C
CON1C=C2N=NC3=C(N2C1)N(c1ccccc1Cl)CC(C)=C3 | 198 to 200 °C

Structure (SMILES) | melting point
CC(NC(=O)C1CCCN1C(=O)Cc1ccccc1)C(=O)NN (stereo not drawn) (PhAc-Pro-Ala-NHNH2; configuration not given here) | 142 to 143 °C
Nc1cccc2cccc(S)c12 | 69 to 72 °C
CC(C)Oc1cc(-n2nc(C(F)(F)F)[nH]c2=O)c(Cl)cc1Cl | 160 to 161 °C
O=C(O)CC1SCCOC1=O (configuration not stated) | 96 to 98 °C
O=C(O)c1cc2cc(F)c(Cl)cc2nc1Cl | 230 °C
c1ccc2c(c1)CNc1cccnc1O2 | 172 to 174 °C
Cc1nc(C)c(Cl)c(NCc2nccc(SCCCSCCSc3ncccn3)c2C)n1 | 112 to 115 °C
CC(=O)C(CSC(=S)N(C)C)=C(C)O | 70 to 72 °C
Cc1[nH]cnc1C=C1CC2CCCn3c2c(c2ccccc23)C1=O (configuration not stated) | 289 to 290 °C
CC(C)(C)OC(=O)NCCS(C)(=O)=O | 85 to 86 °C
COC(=O)c1snnc1C1CC1 | 47 °C
COCc1cc2ccccc2oc1=O | 72 to 73 °C
CN(C(=O)NCCCl)c1ccc(C(O)(C(F)(F)F)C(F)(F)F)cc1 | 120 to 121 °C
CCCC/C=C\c1c([C@H](O)[C@H](CCCC)NC(=O)[C@H](CC(C)C)NC(=O)OCC2CCCCC2)c1=O | 138 to 140 °C
CNC1NC(=O)N(c2ccccc2)C(=O)N1N (configuration not stated) | 242 to 244 °C
Cc1ccc(C)c(CN(c2ncnc3c2cnn3C2CCCO2)C2CCCC2)c1 (configuration not stated) | 173 to 174 °C

Other lines, results leading:

melting point | Structure (SMILES)
138 to 139 °C | O=C(O)CCc1oc(/C=C/c2ccccc2)nc1-c1ccccc1
66.5 to 67.5 °C | COC(=O)c1ccccc1NN=Cc1ccccc1
185 to 195 °C | COc1cc(/C=C/C(=O)Oc2ccc(NC(C)=O)cc2)ccc1O
198 to 201 °C | COC(=O)Nc1nc2cc(S(=O)CC(C)C)ccc2[nH]1 (configuration not stated)
135 °C | COc1cccc(NC(=O)C(N)=S)c1
200 °C | COc1ccc(-c2cncc(-c3cn(C)c(=O)n3-c3ccc(C(C)(C)C#N)cc3)c2)cc1
111 to 113 °C | OCC#CC1=Cc2ccccc2Sc2ccc(Cl)cc21
148 to 152 °C | Cc1nc(-c2ccc(OC3CCCCO3)cc2)cc(-c2c(Cl)ccc(Cl)c2Cl)c1C#N (configuration not stated)
234 to 236 °C | O=C1CCC(N2C(=O)c3cccc(OCc4cc5ccccc5o4)c3C2=O)C(=O)N1 (configuration not stated)
195 to 197 °C | NC(C=Cc1cccc(Cl)c1)=NO
262 to 263 °C | COc1cc(Nc2c(C#N)cnc3cc(-c4cccc(C=O)c4)sc23)c(Cl)cc1Cl
> 300 °C | CC(=O)Nc1cccc2c1C(=O)c1c-2n[nH]c1-c1cccnc1
155 to 157 °C | CCOC(=O)C1=C(CSC(C)=O)NC=C(C(=O)OC)C1c1cccc(Cl)c1Cl (single isomer, unassigned; (-))
134 to 136 °C | COc1cccc(C=Cc2nc3c(s2)N(S(C)(=O)=O)CCC3)c1OC
> 200 °C | CC(=O)SCC(Cc1cccnc1)C(=O)Nc1cccc(C(=O)O)c1 (configuration not stated)
112 °C | COc1ccc(CN(C)CCCc2ccc(NC(=O)c3cccc4c(=O)c5ccccc5[nH]c34)cc2)cc1OC
160 °C | O=C(O)COc1c(I)cc(C(=O)c2cccs2)cc1I
200 to 202 °C | CN1C(=O)C(c2ccncc2)(c2cccc(-c3cc(F)ccc3F)c2)N=C1N (configuration not stated)
137 °C | O=[N+]([O-])c1ccc(NS(=O)(=O)c2ccccc2)cc1
151 to 153 °C | N#CC1=C(Nc2ccc(F)cc2)c2ccccc2CC1

melting point | Structure (SMILES)
121 to 123 °C | NN(Cc1ccccc1)C(=S)Nc1ccccc1
45 to 46 °C | OCc1cnoc1-c1ccc(OC(F)(F)F)cc1
141 to 142 °C | CCOC(=O)c1c(CN(CC)CC)nc2sc3ccncc3c2c1-c1ccc(OC)c(OC)c1
117 to 119 °C | CCCCC(C(=O)O)C1=C(c2ccccc2)c2ccccc2OC1 (configuration not stated)
180 °C | COc1ccc(OC)c(C2(OC)C(=O)Nc3ccc(Cl)cc32)c1 (configuration not stated)
257 to 258 °C | Cc1c(S(=O)(=O)Nc2ccc(-c3nc(C(=O)O)cs3)cc2S(C)(=O)=O)sc2ccc(F)cc12
118 to 119 °C | Cc1cc(C2(C(F)(F)F)CC(c3ccc(Cl)cc3)=NO2)ccc1N (configuration not stated)
216 to 218 °C | COc1ccc([C@@H]2Sc3cc(Cc4ccc(F)cc4)ccc3NC(=O)[C@@H]2O)cc1
131 to 132 °C | C[C@@H](N1CCN(c2ccc(OCC(F)(F)F)cc2)C1=O)[C@@]1(c2ccc(F)cc2F)CO1
132 to 134 °C | COc1cc(C=Cc2ccccc2)ccc1O
151 to 154 °C | CNCCc1ccc2[nH]cc(S(=O)(=O)c3ccccc3)c2c1
159 to 162 °C | O=C(O)c1ccc(NCCCOc2ccccc2)cc1
149 to 151 °C | CCOC(=O)c1cc(-c2ccc3ccccc3c2)[nH]c1N
138 to 140 °C | CC(=O)Nc1ccc(C2=NN(C(=O)CCl)C(C)Cc3cc4c(cc32)OCO4)cc1 (configuration not stated)
245 °C | O=C(O)c1cccc2cc3ccccc3cc12
63 to 64 °C | CC(=NOc1cccc(C(F)(F)F)c1)c1cc(Cl)ccc1NS(=O)(=O)C(F)(F)F
103 to 104 °C | COC(=O)c1ccc(Cc2cccc3ccc(C=O)cc23)c(OC)c1
149 to 151 °C | CCOC(=O)C1=C(COCCNC(=O)n2ccnc2)NC(C)=C(C(=O)OC)C1c1ccccc1Cl (configuration not stated)
105 to 125 °C | Cc1cccc(Br)c1C(=O)c1sc(Nc2ccc(N3CCOCC3)cc2)nc1N
279 to 280 °C | O=C(O)C1CCc2c(c(=O)c3cccnc3n2-c2cccc(Cl)c2)C1 (configuration not stated)
